Test systems include 786-0 renal; MOLT-4 leukemia; OVCAR-4 ovarian; RPMI-8226 leukemia; SF-295 CNS; SK-MEL-5 melanoma; OVCAR-5 ovarian; SF-268 CNS; NCI-H226 lung; T-47D breast.
Holding throughout (assay): inhibition of tumour cell growth, NCI panel, 48 h

Where “and” joins values, the source holds several entries; their conditions need not be identical. Equal values may be shown once.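 These data come from cells grown in 96-well plates and exposed to compound for 48 hours at five concentrations. GI50 is the concentration that inhibits growth by half. TGI denotes the concentration required for complete inhibition of growth.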

Regarding `COc1ccc(C2C3=C(COC3=O)Oc3cc4c(cc32)OCO4)cc1` (stereo not drawn), the TGI with 786-0 renal is over 100 µM; with MOLT-4 leukemia it was 81.1 µM; with OVCAR-4 ovarian it was over 100 µM; in the assay with RPMI-8226 leukemia, over 100 µM; with SF-295 CNS it was 69.6 µM; in the assay with SK-MEL-5 melanoma it was over 100 µM.
In the case of `O=C(C=Nc1ccccc1C(=O)[O-])c1cccs1.O=C(C=Nc1ccccc1C(=O)[O-])c1cccs1.[Zn+2]`, the TGI was over 100 µM with 786-0 renal; over 100 µM with MOLT-4 leukemia; 71.9 µM in the assay with OVCAR-5 ovarian; 79.8 µM in the assay with SF-268 CNS; 42.1 µM with SF-295 CNS.
For `CCCN1C(=O)CNC(=O)c2[nH]cnc21`, the TGI with 786-0 renal, in the assay with MOLT-4 leukemia, in the assay with NCI-H226 lung, in the assay on OVCAR-5 ovarian, in the assay with RPMI-8226 leukemia and with SF-268 CNS was over 100 µM throughout. Moreover, the TGI in the assay with SF-295 CNS and with SK-MEL-5 melanoma was over 100 µM throughout.
For `O=C(Cc1ccccc1)NS(=O)(=O)c1ccccc1`, the TGI in the assay on 786-0 renal, in the assay on MOLT-4 leukemia, in the assay with NCI-H226 lung, with OVCAR-4 ovarian, with OVCAR-5 ovarian and with RPMI-8226 leukemia was over 100 µM throughout. In addition, the TGI in the assay with SF-268 CNS and in the assay on SF-295 CNS was over 100 µM in each case.
For `CCOC(=O)C(C(=O)OCC)=c1sc(=C(C(=O)OCC)C(=O)OCC)s1`, the TGI in the assay on 786-0 renal, in the assay on MOLT-4 leukemia, in the assay on OVCAR-4 ovarian, in the assay on OVCAR-5 ovarian, in the assay on RPMI-8226 leukemia and in the assay with SF-268 CNS was over 100 µM in each case. The TGI in the assay with SF-295 CNS and in the assay with SK-MEL-5 melanoma was over 100 µM each time.
In the case of `C[CH2][Sn]([CH2]C)([O]C(=O)c1ccc(F)cc1)[O][Sn]([CH2]C)([CH2]C)[O]C(=O)c1ccc(F)cc1`, the GI50 is 53.6 µM in the assay with 786-0 renal; 47.1 µM in the assay with MOLT-4 leukemia; 30.8 µM in the assay with NCI-H226 lung; over 100 µM in the assay with OVCAR-4 ovarian; over 100 µM with OVCAR-5 ovarian; 67.4 µM in the assay with SF-268 CNS. Also, the GI50 in the assay with SF-295 CNS and in the assay on SK-MEL-5 melanoma was over 100 µM in each case. Besides, the TGI in the assay on 786-0 renal was over 100 µM; in the assay with MOLT-4 leukemia, over 100 µM; in the assay on NCI-H226 lung, 87.5 µM; in the assay on OVCAR-4 ovarian, over 100 µM; with OVCAR-5 ovarian, over 100 µM; in the assay with SF-268 CNS it was over 100 µM. Moreover, the TGI in the assay on SF-295 CNS and in the assay on SK-MEL-5 melanoma was over 100 µM each time.
As to `O=NN(CCCl)C(=O)N[C@H]1CCCC[C@@H]1Cl`, the TGI with 786-0 renal, with MOLT-4 leukemia, with NCI-H226 lung, in the assay on OVCAR-4 ovarian, with RPMI-8226 leukemia and in the assay with SF-268 CNS was over 100 µM in each case. The TGI with SF-295 CNS and with SK-MEL-5 melanoma was over 100 µM each time.
With `COC(C)(C)[C@H](O)C(O)CC(C)[C@@H]1CCC23CC12CCC1[C@@]2(C)CCC(OC(C)=O)C(C)(C)C2CC(OC2OC(COC(C)=O)C(O)C(O)C2O)[C@]13C` (stereo partly drawn), the GI50 in the assay with 786-0 renal is 11.5 µM; in the assay on MOLT-4 leukemia, 0.00625 µM; in the assay with OVCAR-4 ovarian it was 7.01 µM; in the assay with OVCAR-5 ovarian, 3.92 µM; with RPMI-8226 leukemia, 3.77 µM; with SF-268 CNS, 6.87 µM. The GI50 with SF-295 CNS was 2.17 µM; with SK-MEL-5 melanoma, 10.2 µM. The TGI with 786-0 renal was 15 µM and 25.2 µM; with MOLT-4 leukemia, 26.7 µM and 15.8 µM; with NCI-H226 lung, 16.9 µM; with OVCAR-4 ovarian, 13.1 µM and 21.3 µM; in the assay with OVCAR-5 ovarian, 8.54 µM and 14.3 µM; in the assay with RPMI-8226 leukemia, 6.54 µM and 17.1 µM. For the same compound, the TGI was 12.4 µM and 21.3 µM in the assay with SF-268 CNS; 10.1 µM and 7.53 µM in the assay on SF-295 CNS; 12.8 µM and 23.3 µM with SK-MEL-5 melanoma.
Consider `Cn1nc2ccccc2cc1=O`, for which the TGI in the assay with 786-0 renal, with NCI-H226 lung, with OVCAR-4 ovarian, in the assay with OVCAR-5 ovarian, in the assay on RPMI-8226 leukemia and in the assay on SF-268 CNS was over 100 µM throughout. Also, the TGI in the assay on SF-295 CNS and in the assay with SK-MEL-5 melanoma was over 100 µM in each case.
As to `CCCCCCCCCCCCC(CCCCCCCCCCCC)OP(=O)(O)O`, the TGI in the assay with 786-0 renal, with MOLT-4 leukemia, in the assay with NCI-H226 lung, in the assay with OVCAR-4 ovarian, in the assay with OVCAR-5 ovarian and in the assay with RPMI-8226 leukemia was over 100 µM in each case. Moreover, the TGI with SF-268 CNS, in the assay with SF-295 CNS and in the assay with SK-MEL-5 melanoma was over 100 µM in each case.
`Cc1ccc(NC(=O)CC2C(=O)Nc3ccccc3S2=O)c(C)c1` (stereo not drawn): the TGI is 33.4 µM with 786-0 renal; over 52.5 µM in the assay with MOLT-4 leukemia; 51.6 µM in the assay with NCI-H226 lung; 41.6 µM in the assay on OVCAR-4 ovarian; over 100 µM in the assay with OVCAR-5 ovarian; 44.8 µM in the assay with RPMI-8226 leukemia. The TGI worked out at 65.3 µM with SF-268 CNS, 29.7 µM in the assay with SF-295 CNS and 38.1 µM in the assay on SK-MEL-5 melanoma.
On to `Cn1sc2ccccc2c1=S`, for which the TGI with 786-0 renal is 13.6 µM; in the assay with MOLT-4 leukemia, 14.1 µM; in the assay on NCI-H226 lung it was 53.4 µM; with OVCAR-4 ovarian, 19.4 µM; with OVCAR-5 ovarian it was 37.4 µM; with RPMI-8226 leukemia it was 18.7 µM. Also, the TGI in the assay on SF-268 CNS was found to be 9.79 µM; with SF-295 CNS, 25.4 µM; in the assay with SK-MEL-5 melanoma, 25.3 µM.
Take `FC(F)(F)c1cccc(C2SCc3nc4ccccc4n32)c1` (stereo not drawn): the TGI in the assay on 786-0 renal, with MOLT-4 leukemia, in the assay on NCI-H226 lung, in the assay with OVCAR-5 ovarian, in the assay on RPMI-8226 leukemia and in the assay with SF-268 CNS was over 100 µM each time. For the same compound, the TGI in the assay on SF-295 CNS and in the assay with SK-MEL-5 melanoma was over 100 µM each time.
Consider `CCOC(=O)N1C=CC(=C2C(=C3C=CN(C(=O)OCC)C=C3)C(=C3C=CN(C(=O)OCC)C=C3)C2=C2C=CN(C(=O)OCC)C=C2)C=C1`, for which the TGI was over 100 µM in the assay with 786-0 renal; 45.1 µM with MOLT-4 leukemia; 71 µM in the assay on NCI-H226 lung; over 100 µM in the assay on OVCAR-4 ovarian; over 100 µM in the assay on OVCAR-5 ovarian; over 100 µM in the assay on SF-268 CNS. In addition, the TGI is 92.3 µM in the assay with SF-295 CNS, over 100 µM in the assay on SK-MEL-5 melanoma and over 100 µM in the assay on T-47D breast.

Source of the values: PubChem BioAssay (NCI).
